Entries after “also recorded” stand apart in the source; their conditions may differ. Where two headings read alike, the source gives them in different places.
How the values were obtained:
[1] = system: activated intestinal bacteria; assay: Intestinal bacterial transformation of AEOF; format: in vitro ADME, human; settings: for After transformed by intestinal bacteria / Before transformed by intestinal bacteria: content in the extract; for transformation by intestinal bacteria (in words): in AEOF 15.0, 30.0, 60.0 mg/mL, up to 72 h, single person derived- or multiple people-derived intestinal bacteria; for time in which completely transformed by intestinal bacteria: in AEOF, isoquercetin to quercetin, trollioside to proglobeflowery acid
Description: Each 3 g of fresh feces from 3 healthy men and 3 healthy women of 23–25 years old was suspended in 200 mL of general anaerobic medium (GAM, including L-cystine hydrochloride, soluble starch, pepsin, tryptone, peptone, soy peptone, serum powder, yeast extract, beef extract, and beef liver extract powder purchased from Beijing Aoboxing Biotechnology Co., Ltd, Beijing, China) broth prepared as per a literature (Yang & Xu [2011]), respectively, and cultured in an anaerobic incubator (Shanghai Cimomedical Appliance Co., Ltd., Shanghai, China) at 37 °C for 24 h (Tsuchihashi et al. [2009]). […] Each 100 μL of the activated intestinal bacteria from the 6 volunteers were added into 11.4 mL of GAM, mixed adequately, and incubated in the same conditions as previously to obtain the mixture of activated intestinal bacteria. About 0.4513, 0.9026, and 1.8052 g of AEOF were dissolved in 30 mL of GAM on a super clean bench (Beijing Great Wall Air Purification Co. Ltd., Beijing, China), respectively, to generate the experimental groups. Then, the triplicate GAM containing AEOF was divided into 24 screw-cap test tubes, and each screw-cap test tube had 3 mL of the GAM and 100 μL of the activated intestinal bacteria and the mixture of activated intestinal bacteria, respectively. They were incubated under the same condition, and the test tubes of each concentration in triplicate were removed from the anaerobic incubator at 0, 2, 4, 6, 12, 24, 48, and 72 h. About 100 μL of the bacterial suspension was replaced with GAM to obtain the control group. The GAM absent of the AEOF was used as the blank group. […] About 300 μL of the supernatant was collected, filtered through a 0.45 μm membrane filter, and stored at −20 °C before HPLC analysis.
The HPLC analysis was performed using a Waters 1500 series (Waters Business Operations, Milford, MA) equipped with a 1525 binary HPLC pump, an on-line degasser, a manual injector and a 2489 UV/Visible detector. […] The temperature was set at 35 °C and the UV detecting wavelengths were 254 and 365 nm. The mobile phase consisted of acetonitrile (HPLC grade, Fisher Co., Pittsburgh, PA) (A) and 1.0% acetic acid (Beijing Chemical Works, Beijing, China) in purified water (v/v) (B), and the gradient elution program was as follows: 5–10% A (0–5 min), 10–20% A (5–10 min), 20–25% A (10–22 min), 25–40% A (22–35 min), 40–50% A (35–40 min), and 50–5% A (40–42 min) at a flow rate of 1.0 mL/min. The volume injected was 5 μL.

[2] = previous study, cited from earlier work
[3] = system: everted gut sacs (jejunum); assay: Absorption experiment with everted gut sacs; settings: for transport percentage: Everted gut sacs, AP→BL; for After transported with everted gut sacs: intestinal bacterial transformed AEOF
[4] = Absorption experiment with everted gut sacs; settings: Sprague-Dawley, rat
Caco-2 cell monolayers = assay: Transport experiment with Caco-2 cell monolayers; settings: for transport percentage: Caco-2 cell monolayers; for After transported with Caco-2 cell monolayers: intestinal bacterial transformed AEOF
Description: (§1) The Caco-2 cells were cultured in the culture medium consisting of Dulbecco’s Modified Eagle Medium (DMEM, Gibco Inc., Grand Island, CA)-fetal bovine serum (FBS, Gibco Inc., Grand Island, CA)-nonessential amino acids (NEAA, Corning Costar, Cambridge, MA)-‘penicillin-streptomycin’ (Corning Costar, Cambridge, MA) (100:10:1:1, v/v/v/v) in 25 cm^2 flasks, which were incubated in 5% CO2 and constant temperature (37 °C) and humidity in the incubator. The culture medium was replaced every 2 or 3 days, and the cells were split 1:2 or 1:3 to conduct passage when they reached 80% confluence.
(§2) About 1.5 mL of the culture medium was added into the basal (BL) side of each well of the 12-well Transwell plates (insert diameter 12 mm, pore size 3.0 μm, membrane growth area 1.12 cm^2, Corning Costar, Cambridge, MA), and 0.5 mL of the Caco-2 cell suspension at the density of 2.0 × 10^5 cells/mL was seeded into the apical (AP) side of each insert. The cells were incubated in 5% CO2 and constant temperature (37 °C) and humidity in the incubator. The culture medium in both AP and BL sides was replaced every other day in the first week, then that in AP side was replaced every day and that in BL side was replaced every other day. The cells would differentiate and form a confluent monolayer. The integrity and viability of the cell monolayers were evaluated by measuring transepithelial electrical resistance (TEER) values in the culture medium at 37 °C using a Millicell®-ERS system (Millipore Corp., Bedford, MA), and only the inserts with the TEER above 600 Ω/cm^2 on day 21 were selected to perform the transport experiment.
(§3) About 200 μL of the solution in the receiving chambers was collected at 30, 60, 90, 120, 150, and 180 min, respectively, and then the same volume of HBSS was added. All samples were stored at −20 °C and filtered through a 0.45 μm membrane filter for HPLC analysis.
(§4) The HPLC conditions used for the analysis of the intestinal bacterial transformed AEOF before and after transport experiment was the same as above.
(§5) The transport percentage (%) was calculated using the formula transport percentage (%) = dQ/(C0 × V) × 100, wherein, V (mL) represented the volume of the donor compartment.

[5] = Transport experiment with Caco-2 cell monolayers; settings: human; for Papp at 180 min, 10 mg/mL / Papp at 180 min, 20 mg/mL / Papp at 180 min, 30 mg/mL: Caco-2, Papp, Caco-2 cell monolayers; for Papp at 180 min, 10 mg/mL: extract 10 mg/mL; for Papp at 180 min, 20 mg/mL: extract 20 mg/mL; for Papp at 180 min, 30 mg/mL: extract 30 mg/mL
Description: as §1, §2, §3, §4, §5

[6] = first of three lines per compound (lowest extract concentration)
[7] = first of three lines per compound (lowest extract concentration; AEOF 15, 30, 60 mg/mL)
[8] = second of three lines per compound (middle extract concentration, not given)
[9] = third of three lines per compound (highest extract concentration, not given)
[10] = first of three lines per compound (lowest concentration; 10, 20, 30 mg/mL)
[11] = second of three lines per compound (middle concentration, not given)
[12] = third of three lines per compound (highest concentration, not given)

| Structure (SMILES) | After transformed by intestinal bacteria [1, 6] [µg/mL] | Before transformed by intestinal bacteria [1, 7] [µg/mL] | After transformed by intestinal bacteria [1, 8] [µg/mL] | Before transformed by intestinal bacteria [1, 8] [µg/mL] | After transformed by intestinal bacteria [1, 9] [µg/mL] | Before transformed by intestinal bacteria [1, 9] [µg/mL] | transformation by intestinal bacteria (in words) [1] | transport percentage ([3]; extract 10 mg/mL) [%] | transport percentage ([3]; extract 20 mg/mL) [%] | transport percentage ([3]; extract 30 mg/mL) [%] | After transported with everted gut sacs [3, 10] [µg/mL] | After transported with everted gut sacs [3, 11] [µg/mL] | After transported with everted gut sacs [3, 12] [µg/mL] | Papp at 180 min, 10 mg/mL [4] [×10⁻⁶ cm/s] | Papp at 180 min, 20 mg/mL [4] [×10⁻⁶ cm/s] | Papp at 180 min, 30 mg/mL [4] [×10⁻⁶ cm/s] | transport percentage (Caco-2 cell monolayers; extract 10 mg/mL, AP→BL) [%] | After transported with Caco-2 cell monolayers (Caco-2 cell monolayers; [10]) [µg/mL] | After transported with Caco-2 cell monolayers (Caco-2 cell monolayers; [11]) [µg/mL] | After transported with Caco-2 cell monolayers (Caco-2 cell monolayers; [12]) [µg/mL] | also measured |
| --- | --- | --- | --- | --- | --- | --- | --- | --- | --- | --- | --- | --- | --- | --- | --- | --- | --- | --- | --- | --- | --- |
| O=C1CC[C@H]2c3cc(O)c(O)cc3CCN12 [trolline] | 22.37 | 22.80 | 36.28 | 35.96 | 71.00 | 73.23 | not transformed; also recorded: not changed | 29.42 | 20.32 | 30.00 | 4.33 | 6.97 | 14.76 | 138 ± 1 | 107 ± 5 | 151 ± 4 | 135.43 | 8.10 | 13.59 | 19.15 | absorption mechanism ([2]; ref Liu et al. [2014], Wu et al. [2014]): an associative mechanism including both active and passive transports; transport percentage (Caco-2 cell monolayers; extract 10 mg/mL, BL→AP): 93.13%; transport percentage (Caco-2 cell monolayers; extract 20 mg/mL, AP→BL): 153.03%; transport percentage (Caco-2 cell monolayers; extract 20 mg/mL, BL→AP): 78.21%; transport percentage (Caco-2 cell monolayers; extract 30 mg/mL, AP→BL): 130.00%; transport percentage (Caco-2 cell monolayers; extract 30 mg/mL, BL→AP): 74.30%; Papp at 180 min, 10 mg/mL ([5]; AP→BL): 112 ± 7 ×10⁻⁶ cm/s; Papp at 180 min, 10 mg/mL ([5]; BL→AP): 231 ± 7 ×10⁻⁶ cm/s; Papp at 180 min, 20 mg/mL ([5]; AP→BL): 127 ± 12 ×10⁻⁶ cm/s; Papp at 180 min, 20 mg/mL ([5]; BL→AP): 194 ± 2 ×10⁻⁶ cm/s; Papp at 180 min, 30 mg/mL ([5]; AP→BL): 107 ± 6 ×10⁻⁶ cm/s; Papp at 180 min, 30 mg/mL ([5]; BL→AP): 184 ± 11 ×10⁻⁶ cm/s |
| O=c1cc(-c2ccc(O)c(O)c2)oc2c(C3OC(CO)C(O)C(O)C3OC3OC(CO)C(O)C(O)C3O)c(O)cc(O)c12 [2″-O-β-L-galactopyranosylorientin] | 28.06 | 26.86 | 56.34 | 56.18 | 100.57 | 104.39 | not changed | 8.76 | 4.23 | 9.25 | 1.57 | 1.69 | 5.38 | 41.1 ± 2.5 | 22.3 ± 4.1 | 46.7 ± 2.5 | 13.41 | 0.41 | 1.44 | 4.78 | transformation by intestinal bacteria (in words) ([1]; listed as 2″-O-β-L-Galactopyranosylorientin): not transformed; absorption mechanism ([2]; ref Liu et al. [2015]): transporter mediated efflux in addition to passive diffusion; transport percentage (Caco-2 cell monolayers; extract 10 mg/mL, BL→AP): 8.72%; transport percentage (Caco-2 cell monolayers; extract 20 mg/mL, AP→BL): 22.93%; transport percentage (Caco-2 cell monolayers; extract 20 mg/mL, BL→AP): 14.08%; transport percentage (Caco-2 cell monolayers; extract 30 mg/mL, AP→BL): 49.29%; transport percentage (Caco-2 cell monolayers; extract 30 mg/mL, BL→AP): 16.83%; Papp at 180 min, 10 mg/mL ([5]; AP→BL): 11.1 ± 0.9 ×10⁻⁶ cm/s; Papp at 180 min, 10 mg/mL ([5]; BL→AP): 21.6 ± 2.4 ×10⁻⁶ cm/s; Papp at 180 min, 20 mg/mL ([5]; AP→BL): 19 ± 0.9 ×10⁻⁶ cm/s; Papp at 180 min, 20 mg/mL ([5]; BL→AP): 34.9 ± 0.9 ×10⁻⁶ cm/s; Papp at 180 min, 30 mg/mL ([5]; AP→BL): 40.7 ± 4 ×10⁻⁶ cm/s; Papp at 180 min, 30 mg/mL ([5]; BL→AP): 41.7 ± 2.8 ×10⁻⁶ cm/s |
| O=c1c(O)c(-c2ccc(O)c(O)c2)oc2cc(O)cc(O)c12 [quercetin] | 2.12 | 1.56 | 4.02 | 3.25 | 8.45 | 7.38 | not transformed |  |  |  | 0.00 | 0.00 | 0.00 |  |  |  |  | 0.00 | 0.00 | 0.00 |  |
| COc1cc(C(=O)O)cc(CC=C(C)C)c1OC1OC(CO)C(O)C(O)C1O (centres unmarked) [trollioside] | 0.00 | 5.62 | 0.00 | 12.76 | 0.00 | 26.84 | completely transformed |  |  |  | 0.00 | 0.00 | 0.00 |  |  |  |  | 0.00 | 0.00 | 0.00 | time in which completely transformed by intestinal bacteria [1]: ≤ 24 h |
| CC(C)NCC(O)COc1cccc2ccccc12 (centres unmarked) [propranolol, reference compound] |  |  |  |  |  |  |  |  |  |  |  |  |  |  |  |  |  |  |  |  | Papp at 180 min ([5]; Caco-2, apparent permeability coefficient (Papp), reference compounds, validation of Caco-2 monolayers): 41.2 ×10⁻⁶ cm/s |
| O=c1c(O[C@@H]2O[C@H](CO)[C@@H](O)[C@H](O)[C@H]2O)c(-c2ccc(O)c(O)c2)oc2cc(O)cc(O)c12 [isoquercetin] | 0.00 | 0.37 | 0.00 | 0.56 | 0.00 | 1.38 | completely transformed |  |  |  | 0.00 | 0.00 | 0.00 |  |  |  |  | 0.00 | 0.00 | 0.00 | time in which completely transformed by intestinal bacteria [1]: ≤ 24 h |

— publication PMC6130518, “Investigation of the effective components of the flowers of Trollius chinensis from the perspectives of intestinal bacterial transformation and intestinal absorption” (Pharmaceutical Biology, 2017)
